Reference: US20250289789A1, “REVERSIBLE LYSINE COVALENT MODIFIERS OF CDK2 AND USES THEREOF” (Terremoto Biosciences, Inc., priority 2023, published 2025)
Values after ≈ are worked out from the molar mass of the structure shown. “Also recorded” adds a separate entry of the source.

What was measured:
[1] = Solubility determination in PBS pH 7.4; assay type: physicochemical; conditions: aqueous buffer, kinetic from dmso stock; PBS pH 7.4, 2 hours, 25° C.; the listed prodrug
Protocol: Stock solutions (10 mM DMSO, 30 μL) of each sample were placed into 96-well plate, along with 970 μL of PBS pH 7.4 were added into each vial of the cap-less solubility sample plate. The assay was performed in duplicate. A stir stick was added to each well and sealed using a molded PTFE/Silicone plug. Then the Solubility Sample plate was transferred to an Eppendorf Thermomixer Comfort plate shaker and shaken at 1100 RPM for 2 hours at 25° C. After completion the plugs and stir sticks were removed and the samples were transferred into a filter plate and filtered using a vacuum manifold. 5 μL aliquots of filtrate were taken and diluted with 5 μL DMSO and 490 μL of a 1:1 v/v mixture of H2O and acetonitrile. 200 μL of diluent was transferred to a new 96-well plate for LC-MS/MS analysis. The solution was analyzed and quantified against a standard of known concentration in DMSO using LC coupled with Mass spectral peak for identification and quantitation.

[2] = target: T1, CDK4-NanoLuc fusion with CCND1 in 293T or 293 cells (Homo sapiens, UniProt P11802); assay: NanoBRET Target Engagement (TE) Intracellular Kinase Assay, CDK4/CCND1; assay type: cell-based; conditions: NanoBRET TE intracellular kinase assay, 2-hour incubation, read-out: NanoBRET-CDK4/D1 IC50
T1 construct: host or cells: 293T (ATCC CRL-3216) or 293 (ATCC CRL-1573)
T1 sequence (P11802 whole entry, the tested form may be a part): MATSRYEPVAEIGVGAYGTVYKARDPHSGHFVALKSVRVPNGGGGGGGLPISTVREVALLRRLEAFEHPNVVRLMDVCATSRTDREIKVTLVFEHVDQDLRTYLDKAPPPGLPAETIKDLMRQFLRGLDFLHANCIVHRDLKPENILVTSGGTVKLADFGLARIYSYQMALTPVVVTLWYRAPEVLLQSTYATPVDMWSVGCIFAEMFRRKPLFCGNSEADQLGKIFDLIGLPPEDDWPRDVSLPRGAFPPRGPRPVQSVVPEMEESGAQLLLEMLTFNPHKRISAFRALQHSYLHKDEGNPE
T1 sequence (P24385 whole entry partner, the tested form may be a part): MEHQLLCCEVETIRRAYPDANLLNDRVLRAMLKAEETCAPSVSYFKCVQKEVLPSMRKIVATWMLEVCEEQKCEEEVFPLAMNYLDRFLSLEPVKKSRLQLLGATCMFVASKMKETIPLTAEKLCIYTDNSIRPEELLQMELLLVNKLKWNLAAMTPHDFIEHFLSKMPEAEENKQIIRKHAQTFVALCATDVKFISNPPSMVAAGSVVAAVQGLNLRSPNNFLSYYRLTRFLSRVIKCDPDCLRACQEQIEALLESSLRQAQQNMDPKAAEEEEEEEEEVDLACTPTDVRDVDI

[3] = target: T2, CDK1-NanoLuc fusion with CCNB1 in 293T or 293 cells (Homo sapiens, UniProt P06493); assay: NanoBRET Target Engagement (TE) Intracellular Kinase Assay, CDK1/CCNB1; assay type: cell-based; conditions: NanoBRET TE intracellular kinase assay, 2-hour incubation, read-out: NanoBRET-CDK1/B1 IC50
T2 construct: host or cells: 293T (ATCC CRL-3216) or 293 (ATCC CRL-1573)
T2 sequence (P06493 whole entry, the tested form may be a part): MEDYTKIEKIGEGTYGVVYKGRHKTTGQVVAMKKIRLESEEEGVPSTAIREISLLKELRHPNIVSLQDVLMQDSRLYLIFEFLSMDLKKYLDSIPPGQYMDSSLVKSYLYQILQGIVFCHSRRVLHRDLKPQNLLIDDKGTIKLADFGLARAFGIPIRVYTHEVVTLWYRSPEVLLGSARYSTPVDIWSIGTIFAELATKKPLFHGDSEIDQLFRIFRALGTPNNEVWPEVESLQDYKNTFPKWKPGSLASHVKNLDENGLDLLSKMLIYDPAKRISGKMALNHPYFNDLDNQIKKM
T2 sequence (P14635 whole entry partner, the tested form may be a part): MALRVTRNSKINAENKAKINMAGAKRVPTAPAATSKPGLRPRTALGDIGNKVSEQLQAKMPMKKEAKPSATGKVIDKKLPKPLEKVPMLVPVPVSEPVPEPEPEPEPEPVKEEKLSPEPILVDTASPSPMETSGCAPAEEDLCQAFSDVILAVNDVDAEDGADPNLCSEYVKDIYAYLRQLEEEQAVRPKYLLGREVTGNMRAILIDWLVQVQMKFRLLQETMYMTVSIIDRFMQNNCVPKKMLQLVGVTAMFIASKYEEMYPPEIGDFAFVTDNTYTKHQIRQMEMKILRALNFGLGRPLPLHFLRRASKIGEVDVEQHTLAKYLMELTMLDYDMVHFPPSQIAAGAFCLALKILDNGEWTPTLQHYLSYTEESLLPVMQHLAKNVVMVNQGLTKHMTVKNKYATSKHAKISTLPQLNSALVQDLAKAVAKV
How it was run: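 IC50 derived by four-parameter logistic fit of DMSO-normalized acceptor/donor (610/450 nm) BRET ratio. Compound and Tracer K-10 were applied together for 2 h at 37° C to 293 or 293T cells transfected 24 h earlier with CDK1-NanoLuc fusion and cyclin B1.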

[4] = target: T3, CDK2-NanoLuc fusion with CCNE1 in 293T or 293 cells (Homo sapiens, UniProt P24941); assay: NanoBRET Target Engagement (TE) Intracellular Kinase Assay, CDK2/CCNE1; assay type: cell-based; conditions: NanoBRET TE intracellular kinase assay, 2-hour incubation, read-out: NanoBRET-CDK2/E1 IC50
T3 construct: host or cells: 293T (ATCC CRL-3216) or 293 (ATCC CRL-1573)

pCDK2-CCNE1 proteins = pCDK2-CCNE1 proteins (Homo sapiens, UniProt P24941); assay: Identification of covalent binding by intact mass spectrometry, with and without competitor PF-06873600; conditions: for Covalent complex formation with CDK2 protein (intact mass spectra after sodium borohydride reduction): 1 hour at room temperature or 37° C., no competitor
Protocol: pCDK2-CCNE1 proteins (1 μM) were treated with a compound (1.5 μM) from Table 4 for 1 hour at room temperature or 37° C., with and without competitor molecule PF-06873600 (20 μM final concentration) as a specificity control. As used herein, the competitor molecule is
As used herein, the competitor molecule is 6-(difluoromethyl)-8-((1R,2R)-2-hydroxy-2-methylcyclopentyl)-2-((1-(methylsulfonyl)piperidin-4-yl)amino)pyrido[2,3-d]pyrimidin-7(8H)-one (PF-06873600). Reversible imines were captured by reductive amination with the addition of 5 mM sodium borohydride at room temperature for 5 min. Reduction reactions were quenched by diluting the sample in equal volume of 1% trifluoroacetic acid (v/v) in acetonitrile, then analyzed by LC-MS. Deconvoluted monoisotopic intensities of unmodified and compound-modified mass peaks were compared.
FIGS. 1A to 1P provide intact mass spectra for pCDK2-CCNE1 proteins after incubation with compounds of the present disclosure and subsequent sodium borohydride reduction. […] Further, FIGS. 1A to 1P each provide intact mass spectra following the incubation of pCDK2-CCNE1 proteins with a compound of the present disclosure both in the absence of a competitor molecule (i.e., PF-06873600, a molecule known to bind to and inhibit the function of CDK2); and in the presence of a significant stoichiometric excess of a competitor molecule PF-06873600.
FIGS. 2A to 2N provide intact mass spectra for pCDK2-CCNE1 proteins after incubation with compounds of the present disclosure and subsequent sodium borohydride reduction.

[5] = tested on: Phospho-Rb Ser807/811 in OVCAR3 cells; assay: OVCAR3 Phospho-Rb Ser807/811 HTRF assay; assay type: cell-based; conditions: Homo sapiens, OVCAR-3, 1 h, OVCAR3 cells, Phospho-Rb Ser807/811 HTRF, 1 hour incubation; read-out: pRb-OVCAR3 IC50
Protocol: Cells were trypsinized and resuspended in 1 mM hydroxyurea (Sigma; H8627), 90% RPMI and 10% fetal bovine serum. […] Dose response curve normalized to DMSO control was plotted using four-parameter logistic model for IC50 calculation.

| Structure (SMILES) | solubility at 2 h [1] [µM] | also measured |
| --- | --- | --- |
| COc1cc(O)c(/C=N/C(C)C)c(OCC(=O)Nc2cc([C@H]3C[C@@H](OC(=O)NC(C)C)C3)[nH]n2)c1 [Compound 223a, (1s,3s)-3-(3-(2-(3-hydroxy-2-((E)-(isopropylimino)methyl)-5-methoxyphenoxy)acetamido)-1H-pyrazol-5-yl)cyclobutyl isopropylcarbamate] | 6.7 (≈ 3.27 µg/mL) |  |
| COc1cc(O)c(/C=N/C(C)C)c2c1CC(C(=O)Nc1cc([C@H]3CC[C@@H](OC(=O)N(C)N(C)C)C3)n[nH]1)C2 (single isomer, unassigned) [Compound 284a, (1R,3S)-3-(5-((*)-5-hydroxy-4-((E)-(isopropylimino)methyl)-7-methoxy-2,3-dihydro-1H-indene-2-carboxamido)-1H-pyrazol-3-yl)cyclopentyl 1,2,2-trimethylhydrazine-1-carboxylate] | 253 (≈ 133 µg/mL) |  |
| CCCC/N=C/c1c(O)cc(OC)cc1OCC(=O)Nc1cc([C@H]2CC[C@@H](OC(=O)NC(C)C)C2)[nH]n1 [Compound 64d, (1R,3S)-3-(3-(2-(2-((E)-(butylimino)methyl)-3-hydroxy-5-methoxyphenoxy)acetamido)-1H-pyrazol-5-yl)cyclopentyl isopropylcarbamate] | 67 (≈ 34.5 µg/mL) |  |
| CC(C)/N=C/c1c(O)cccc1OCC(=O)Nc1cc([C@H]2CC[C@@H](OC(=O)NC3(C)CC3)C2)[nH]n1 [Compound 82a, (1R,3S)-3-(3-(2-(3-hydroxy-2-((E)-(isopropylimino)methyl)phenoxy)acetamido)-1H-pyrazol-5-yl)cyclopentyl (1-methylcyclopropyl)carbamate] | 34 (≈ 16.4 µg/mL) |  |
| COc1cc(O)c(/C=N/C(C)C)c2c1CC(C(=O)Nc1cc([C@H]3CC[C@@H](OC(=O)NC(C)(C)C)C3)[nH]n1)C2 (single isomer, unassigned) [Compound 283a, (1R,3S)-3-(3-((*)-5-hydroxy-4-((E)-(isopropylimino)methyl)-7-methoxy-2,3-dihydro-1H-indene-2-carboxamido)-1H-pyrazol-5-yl)cyclopentyl tert-butylcarbamate] | 149 (≈ 78.3 µg/mL) |  |
| COc1cc(O)c(/C=N/C(C)C)c(OCC(=O)Nc2cc([C@H]3CC[C@@H](OC(=O)NC4(C)CC4)C3)[nH]n2)c1 [Compound 251a, (1R,3S)-3-(3-(2-(3-hydroxy-2-((E)-(isopropylimino)methyl)-5-methoxyphenoxy)acetamido)-1H-pyrazol-5-yl)cyclopentyl (1-methylcyclopropyl)carbamate] | 50 (≈ 25.7 µg/mL) |  |
| COc1cc(O)c(/C=N/C(C)C)c(OCC(=O)Nc2cc([C@H]3CC[C@@H](OC(=O)N(C)N(C)C)C3)[nH]n2)c1 [Compound 172a, (1R,3S)-3-(3-(2-(3-hydroxy-2-((E)-(isopropylimino)methyl)-5-methoxyphenoxy)acetamido)-1H-pyrazol-5-yl)cyclopentyl 1,2,2-trimethylhydrazine-1-carboxylate] | 227 (≈ 117 µg/mL) |  |
| COc1cc(O)c(/C=N/CCS(=O)(=O)O)c(OCC(=O)Nc2cc([C@H]3CC[C@@H](OC(=O)NC(C)C)C3)[nH]n2)c1 [Compound 64q, 2-(((E)-2-hydroxy-6-(2-((5-((1S,3R)-3-((isopropylcarbamoyl)oxy)cyclopentyl)-1H-pyrazol-3-yl)amino)-2-oxoethoxy)-4-methoxybenzylidene)amino)ethane-1-sulfonic acid] | 243 (≈ 138 µg/mL) |  |
| CCOC(=O)C/N=C/c1c(O)cc(OC)cc1OCC(=O)Nc1cc([C@H]2CC[C@@H](OC(=O)NC(C)C)C2)[nH]n1 [Compound 64p, Ethyl 2-(((E)-2-hydroxy-6-(2-((5-((1S,3R)-3-((isopropylcarbamoyl)oxy)cyclopentyl)-1H-pyrazol-3-yl)amino)-2-oxoethoxy)-4-methoxybenzylidene)amino)acetate] | 4.8 (≈ 2.62 µg/mL) |  |
| CC(C)NC(=O)O[C@@H]1CC[C@H](c2cc(NC(=O)c3cc(-c4cccc(O)c4C=O)nn3C)n[nH]2)C1 [Compound 17, (1R,3S)-3-{5-[5-(2-formyl-3-hydroxyphenyl)-2-methylpyrazole-3-amido]-2H-pyrazol-3-yl}cyclopentyl N-isopropylcarbamate 2,2,2-trifluoroacetate] |  | IC50 [2]: 4580 nM; IC50 [3]: 16.7 nM; IC50 [4]: 4.87 nM; Observed mass value of the covalent complex between compound and CDK2 protein (pCDK2-CCNE1 proteins; intact mass spectrometry after borohydride reduction, unmodified CDK2 34096-34097 Da): 34561 Da; Covalent complex formation with CDK2 protein (intact mass spectra after sodium borohydride reduction) (pCDK2-CCNE1 proteins; pCDK2-CCNE1 1 μM, compound 1.5 μM, 2,2,2-trifluoroacetate): formed a covalent complex with CDK2 protein; also recorded: resulted in covalent complex formation; Binding pocket by competition: complex formation in presence of molar excess PF-06873600 (pCDK2-CCNE1 proteins; pCDK2-CCNE1 1 μM, compound 1.5 μM, competitor PF-06873600 20 μM): bound to the same binding pocket of CDK2 as the competitor molecule PF-06873600; IC50 [5]: 226 nM |
| CNC(=O)O[C@@H]1CC[C@H](c2cc(NC(=O)c3cc(-c4cccc(O)c4C=O)nn3C)n[nH]2)C1 [Compound 50, (1R,3S)-3-{5-[5-(2-formyl-3-hydroxyphenyl)-2-methylpyrazole-3-amido]-2H-pyrazol-3-yl}cyclopentyl N-methylcarbamate; trifluoroacetic acid] |  | IC50 [2]: > 10000 nM; IC50 [3]: 49.7 nM; IC50 [4]: 8.63 nM; Covalent complex formation with CDK2 protein (intact mass spectra after sodium borohydride reduction) (pCDK2-CCNE1 proteins; pCDK2-CCNE1 1 μM, compound 1.5 μM): resulted in covalent complex formation; IC50 [5]: 382 nM |

The next lines start with results.

| solubility at 2 h [1] [µM] | Structure (SMILES) | also measured |
| --- | --- | --- |
| 191 (≈ 98.5 µg/mL) | COc1cc(O)c(/C=N/C(C)C)c(OCC(=O)Nc2cc([C@H]3CC[C@@H](OC(=O)NC(C)(C)C)C3)[nH]n2)c1 [Compound 128a, (1R,3S)-3-(3-(2-(3-hydroxy-2-((E)-(isopropylimino)methyl)-5-methoxyphenoxy)acetamido)-1H-pyrazol-5-yl)cyclopentyl tert-butylcarbamate] |  |
| 156 (≈ 78.2 µg/mL) | CCCNC(=O)O[C@@H]1CC[C@H](c2cc(NC(=O)COc3cc(OC)cc(O)c3/C=N/C(C)C)n[nH]2)C1 [Compound 221a, (1R,3S)-3-(3-(2-(3-hydroxy-2-((E)-(isopropylimino)methyl)-5-methoxyphenoxy)acetamido)-1H-pyrazol-5-yl)cyclopentyl propylcarbamate] |  |
| 79 (≈ 39.6 µg/mL) | CCC/N=C/c1c(O)cc(OC)cc1OCC(=O)Nc1cc([C@H]2CC[C@@H](OC(=O)NC(C)C)C2)[nH]n1 [Compound 64b, (1R,3S)-3-(3-(2-(3-hydroxy-5-methoxy-2-((E)-(propylimino)methyl)phenoxy)acetamido)-1H-pyrazol-5-yl)cyclopentyl isopropylcarbamate] |  |
| 48 (≈ 24 µg/mL) | CC/N=C/c1c(O)cc(OC)cc1OCC(=O)Nc1cc([C@H]2CC[C@@H](OC(=O)NC3(C)CC3)C2)[nH]n1 [Compound 251c, (1R,3S)-3-(3-(2-(2-((E)-(ethylimino)methyl)-3-hydroxy-5-methoxyphenoxy)acetamido)-1H-pyrazol-5-yl)cyclopentyl (1-methylcyclopropyl)carbamate] |  |
| 215 (≈ 108 µg/mL) | COc1cc(O)c(/C=N/C(C)C)c(OCC(=O)Nc2cc([C@H]3CC[C@@H](OC(=O)NC(C)C)C3)[nH]n2)c1 [Compound 64a, (1R,3S)-3-(3-(2-(3-hydroxy-2-((E)-(isopropylimino)methyl)-5-methoxyphenoxy)acetamido)-1H-pyrazol-5-yl)cyclopentyl isopropylcarbamate] |  |
